Tests used:
Assay type in all cases: cell-based, human
[1] = system: pEGFR expression in Huh7 cells; experiment: Immunofluorescence (CLSM) of pEGFR expression; details: 48 hr
Protocol: (§1) To evaluate the effect of nanocomplexes on EGFR and tubulin interactions, Huh7 cells (5×10^4 cells/well) in 24 well plates were treated with 15 nM of CA4, PLGA-b-PEG-CA4 NP, Cet-PLGA-b-PEG-CA4 NP, 5 μM of 2 ME, PLGA-b-PEG-2 ME NP, Cet-PLGA-b-PEG-2 ME NP and combinatorial Cet-PLEA-b-PEG-CA4 NP+Cet-PLGA-b-PEG-2 ME NP (15 nM+5 μM) for 48 hr. Untreated and bare PLGA-b-PEG NP treated cells served as the negative controls. Cells were then fixed with 3.7% formaldehyde at 37° C. for 30 min and immunostained with primary antibodies anti-EGFR, anti-pEGFR XP rabbit monoclonal antibodies (Cell Signaling Technology Inc., USA), anti-α-Tubulin mouse monoclonal antibody (Signa Aldrich, USA) and anti-pHistone H3 rabbit polyclonal antibody (Ser-10, Santa Cruz Biotechnology, USA) followed by incubation with secondary antibody FITC-conjugated anti-mouse IgG or FITC-conjugated anti-rabbit IgG (Sigma Aldrich, USA) or anti-mouse IgG-Alexa 568 conjugate (Invitrogen, USA). Hoechst 33258 was used for DNA counterstaining and cells were examined under CLSM.

[2] = system: pHistone H3 in Huh7 cells; experiment: Immunofluorescence of Histone H3 phosphorylation (Serine 10); details: 48 hr
Protocol: as §1

Huh7 cells [3] = experiment: SRB cytotoxicity assay; details: Huh7, 48 hr incubation, mean ± SD of three experiments
Protocol: For cytotoxicity measurements, Hep G2 and Huh7 cells were incubated in 96-well plates (Nunc, USA) at 5×10^4 cells/well density and then treated with bare PLGA-b-PEG NP, Cet-PLEA-b-PEG NP (50-250 μg/mL), free drug CA4, its nano-complexes ([…]) and free drug 2 ME, its nano-complexes (1-15 μM) for 48 hr. […] The standard SRB assay was used to measure the cell viabilities. The absorbance was measured with a 96-well fluorescence plate reader (SPECTRAmax M2, Molecular Devices, USA) equipped with the SOFTmax Pro software (Molecular Devices), at a 550 nun wavelength. IC50 values of the free drugs and all the nanocomplexes were evaluated using OriginPro 8.0 software.

Huh7 cells [4] = experiment: Annexin V/PI apoptosis assay by flow cytometry; details: IC50 concentrations, 48 hr
Protocol: Annexin V and Propidium iodide (PI) staining detection kit was used to quantify apoptotic cells. […] A combination of Cet-PLGA-b-PEG-CA4 NP Cet-PLEA-b-PEG-2ME NP (15 nM+5 μM) was also evaluated. Untreated and bare PLGA-b-PEG NP treated cells served as the negative controls. Cells were washed twice with PBS and resuspended in 400 μL of 1× binding buffer. Then, 5 μL of Annexin V-FITC and PI solution were added to the test samples, incubated for 15 min in dark at room temperature, and analyzed using flow cytometer BD FACS ARIA special order system equipped with the BD FACSDiva. (Becton and Dickinson, USA) software program. The fluorescence of 20,000 cells were gated and counted for each sample.

Structure (SMILES)	effect on pEGFR expression by CLSM ([1]; 5 μM)	pHistone H3 positive cells ([2]; 5 μM)	IC50 (Huh7 cells [3])	induction of apoptosis (Huh7 cells [4])	effect on pEGFR expression by CLSM ([1]; 15 nM)	pHistone H3 positive cells ([2]; 15 nM)
COc1cc2c(cc1O)CC[C@@H]1[C@@H]2CC[C@]2(C)[C@@H](O)CC[C@@H]12 [2 ME, 2-methoxyestradiol]	moderately affected	2±0.7%	3500 nM	2.6%	–	–
COc1ccc(/C=C\c2cc(OC)c(OC)c(OC)c2)cc1O [CA4, combretastatin A4]	–	–	14.9 nM	11.5%	moderately affected	4±0.3%

Source: patent US20170128592A1, “TARGETED POLYMERIC NANO-COMPLEXES AS DRUG DELIVERY SYSTEM” (Indian Institute of Technology, Bombay, priority 2015, published 2017)
